In ChEMBL document CHEMBL1147144, “Novel styrylpyridines as probes for SPECT imaging of amyloid plaques” (J Med Chem, 2007):
Each block holds one molecule with its values, some of them ahead of it.

Key:
[1] = biological target: Amyloid-beta precursor protein (Homo sapiens, UniProt P05067); experiment: Displacement of […] from Abeta peptide plaques in Alzheimer's disease patient brain
Thyroid gland [2] = experiment: Biodistribution in ICR mouse thyroid at 5 to 10 uCi, iv after 1 hr; format: ADME, organism-based; settings: in vivo
Heart [3] = experiment: Biodistribution in ICR mouse heart at 5 to 10 uCi, iv after 30 mins; format: ADME, organism-based; settings: in vivo, 0.5 h
Zone of skin [4] = experiment: Biodistribution in ICR mouse skin at 5 to 10 uCi, iv after 2 hrs; format: ADME, organism-based; settings: in vivo
Lung [5] = experiment: Biodistribution in ICR mouse lung at 5 to 10 uCi, iv after 2 hrs; format: ADME, organism-based; settings: in vivo
Zone of skin [6] = experiment: Biodistribution in ICR mouse skin at 5 to 10 uCi, iv after 1 hr; format: ADME, organism-based; settings: in vivo
Blood [7] = experiment: Biodistribution in ICR mouse blood at 5 to 10 uCi, iv after 2 hrs; format: ADME, organism-based; settings: in vivo
Heart [8] = experiment: Biodistribution in ICR mouse heart at 5 to 10 uCi, iv after 2 mins; format: ADME, organism-based; settings: in vivo
Spleen [9] = experiment: Biodistribution in ICR mouse spleen at 5 to 10 uCi, iv after 2 hrs; format: ADME, organism-based; settings: in vivo
Lung [10] = experiment: Biodistribution in ICR mouse lung at 5 to 10 uCi, iv after 30 mins; format: ADME, organism-based; settings: in vivo, 0.5 h
Blood [11] = experiment: Biodistribution in ICR mouse blood at 5 to 10 uCi, iv after 2 mins; format: ADME, organism-based; settings: in vivo
Muscle tissue [12] = experiment: Biodistribution in ICR mouse muscle at 5 to 10 uCi, iv after 1 hr; format: ADME, organism-based; settings: in vivo
Spleen [13] = experiment: Biodistribution in ICR mouse spleen at 5 to 10 uCi, iv after 1 hr; format: ADME, organism-based; settings: in vivo
Blood [14] = experiment: Biodistribution in ICR mouse blood at 5 to 10 uCi, iv after 1 hr; format: ADME, organism-based; settings: in vivo
Kidney [15] = experiment: Biodistribution in ICR mouse kidney at 5 to 10 uCi, iv after 2 hrs; format: ADME, organism-based; settings: in vivo
Thyroid gland [16] = experiment: Biodistribution in ICR mouse thyroid at 5 to 10 uCi, iv after 2 mins; format: ADME, organism-based; settings: in vivo
Brain [17] = experiment: Biodistribution in ICR mouse brain at 5 to 10 uCi, iv after 1 hr; format: ADME, organism-based; settings: in vivo
Spleen [18] = experiment: Biodistribution in ICR mouse spleen at 5 to 10 uCi, iv after 30 mins; format: ADME, organism-based; settings: in vivo, 0.5 h
Muscle tissue [19] = experiment: Biodistribution in ICR mouse muscle at 5 to 10 uCi, iv after 2 mins; format: ADME, organism-based; settings: in vivo
Liver [20] = experiment: Biodistribution in ICR mouse liver at 5 to 10 uCi, iv after 1 hr; format: ADME, organism-based; settings: in vivo
Thyroid gland [21] = experiment: Biodistribution in ICR mouse thyroid at 5 to 10 uCi, iv after 30 mins; format: ADME, organism-based; settings: in vivo, 0.5 h
Brain [22] = experiment: Ratio of drug distribution in brain after 2 mins to 30 mins in ICR mouse at 5 to 10 uCi, iv; format: ADME, organism-based; settings: in vivo
Liver [23] = experiment: Biodistribution in ICR mouse liver at 5 to 10 uCi, iv after 30 mins; format: ADME, organism-based; settings: in vivo, 0.5 h
Brain [24] = experiment: Biodistribution in ICR mouse brain at 5 to 10 uCi, iv after 30 mins; format: ADME, organism-based; settings: in vivo, 0.5 h
Lung [25] = experiment: Biodistribution in ICR mouse lung at 5 to 10 uCi, iv after 1 hr; format: ADME, organism-based; settings: in vivo
Zone of skin [26] = experiment: Biodistribution in ICR mouse skin at 5 to 10 uCi, iv after 2 mins; format: ADME, organism-based; settings: in vivo
Kidney [27] = experiment: Biodistribution in ICR mouse kidney at 5 to 10 uCi, iv after 30 mins; format: ADME, organism-based; settings: in vivo, 0.5 h
Brain [28] = experiment: Biodistribution in ICR mouse brain at 5 to 10 uCi, iv after 2 hrs; format: ADME, organism-based; settings: in vivo
Lung [29] = experiment: Biodistribution in ICR mouse lung at 5 to 10 uCi, iv after 2 mins; format: ADME, organism-based; settings: in vivo
Heart [30] = experiment: Biodistribution in ICR mouse heart at 5 to 10 uCi, iv after 1 hr; format: ADME, organism-based; settings: in vivo
Heart [31] = experiment: Biodistribution in ICR mouse heart at 5 to 10 uCi, iv after 2 hrs; format: ADME, organism-based; settings: in vivo
Kidney [32] = experiment: Biodistribution in ICR mouse kidney at 5 to 10 uCi, iv after 1 hr; format: ADME, organism-based; settings: in vivo
Blood [33] = experiment: Biodistribution in ICR mouse blood at 5 to 10 uCi, iv after 30 mins; format: ADME, organism-based; settings: in vivo, 0.5 h
Liver [34] = experiment: Biodistribution in ICR mouse liver at 5 to 10 uCi, iv after 2 mins; format: ADME, organism-based; settings: in vivo
Liver [35] = experiment: Biodistribution in ICR mouse liver at 5 to 10 uCi, iv after 2 hrs; format: ADME, organism-based; settings: in vivo
Kidney [36] = experiment: Biodistribution in ICR mouse kidney at 5 to 10 uCi, iv after 2 mins; format: ADME, organism-based; settings: in vivo
Zone of skin [37] = experiment: Biodistribution in ICR mouse skin at 5 to 10 uCi, iv after 30 mins; format: ADME, organism-based; settings: in vivo, 0.5 h
Brain [38] = experiment: Biodistribution in ICR mouse brain at 5 to 10 uCi, iv after 2 mins; format: ADME, organism-based; settings: in vivo
Muscle tissue [39] = experiment: Biodistribution in ICR mouse muscle at 5 to 10 uCi, iv after 2 hrs; format: ADME, organism-based; settings: in vivo
Muscle tissue [40] = experiment: Biodistribution in ICR mouse muscle at 5 to 10 uCi, iv after 30 mins; format: ADME, organism-based; settings: in vivo, 0.5 h
Thyroid gland [41] = experiment: Biodistribution in ICR mouse thyroid at 5 to 10 uCi, iv after 2 hrs; format: ADME, organism-based; settings: in vivo
[42] = Partition coefficient, log P at pH 7.4; format: physicochemical; settings: octanol/water
Spleen [43] = experiment: Biodistribution in ICR mouse spleen at 5 to 10 uCi, iv after 2 mins; format: ADME, organism-based; settings: in vivo

Chain of Amyloid-beta precursor protein (P05067 whole entry): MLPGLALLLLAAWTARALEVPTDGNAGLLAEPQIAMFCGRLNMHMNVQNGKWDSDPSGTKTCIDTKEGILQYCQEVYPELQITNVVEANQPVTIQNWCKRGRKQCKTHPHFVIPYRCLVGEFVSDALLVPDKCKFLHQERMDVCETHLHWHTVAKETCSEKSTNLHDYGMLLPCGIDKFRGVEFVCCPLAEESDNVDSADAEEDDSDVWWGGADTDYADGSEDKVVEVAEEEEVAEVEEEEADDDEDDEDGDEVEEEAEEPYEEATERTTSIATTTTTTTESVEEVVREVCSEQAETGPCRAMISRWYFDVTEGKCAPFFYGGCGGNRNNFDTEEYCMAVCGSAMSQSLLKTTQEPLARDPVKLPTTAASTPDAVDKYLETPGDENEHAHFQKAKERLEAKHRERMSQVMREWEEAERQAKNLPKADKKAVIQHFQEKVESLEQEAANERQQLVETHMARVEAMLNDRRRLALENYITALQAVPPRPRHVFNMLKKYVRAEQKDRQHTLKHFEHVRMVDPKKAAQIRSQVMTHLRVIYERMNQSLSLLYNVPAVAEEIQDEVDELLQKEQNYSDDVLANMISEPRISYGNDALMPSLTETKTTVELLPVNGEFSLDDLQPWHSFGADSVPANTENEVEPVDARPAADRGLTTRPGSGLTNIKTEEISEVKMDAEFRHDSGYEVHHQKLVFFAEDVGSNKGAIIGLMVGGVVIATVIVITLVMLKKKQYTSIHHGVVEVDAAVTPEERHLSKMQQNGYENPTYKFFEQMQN

- Ki [1]: 4.5 nM
SMILES: CNc1ccc(/C=C/c2cnc(OCCOCCOCCF)c(Br)c2)cc1

- Ki [1]: 15.5 nM
SMILES: OCCOc1ncc(/C=C/c2ccc(O)cc2)cc1I

- Drug uptake (Thyroid gland [2]): 59.1 % ID/g
- Drug uptake (Heart [3]): 1.93 % ID/g
- Drug uptake (Zone of skin [4]): 0.4 % ID/g
- Drug uptake (Lung [5]): 1 % ID/g
- Drug uptake (Zone of skin [6]): 1.16 % ID/g
- Drug uptake (Blood [7]): 1.01 % ID/g
- Drug uptake (Heart [8]): 10.2 % ID/g
- Drug uptake (Spleen [9]): 0.8 % ID/g
- Drug uptake (Lung [10]): 3.02 % ID/g
- Drug uptake (Blood [11]): 2.71 % ID/g
- Drug uptake (Muscle tissue [12]): 0.55 % ID/g
- Drug uptake (Spleen [13]): 1.32 % ID/g
- Drug uptake (Blood [14]): 2.18 % ID/g
- Drug uptake (Kidney [15]): 1.48 % ID/g
- Drug uptake (Thyroid gland [16]): 4.15 % ID/g
- Drug uptake (Brain [17]): 1.32 % ID/g
- Drug uptake (Spleen [18]): 1.94 % ID/g
- Drug uptake (Muscle tissue [19]): 0.71 % ID/g
- Drug uptake (Liver [20]): 6.22 % ID/g
- Drug uptake (Thyroid gland [21]): 11.2 % ID/g
- Ratio (Brain [22]): 1.52
- Drug uptake (Liver [23]): 12.4 % ID/g
- Drug uptake (Brain [24]): 3.56 % ID/g
- Drug uptake (Lung [25]): 1.98 % ID/g
- Drug uptake (Zone of skin [26]): 0.46 % ID/g
- Drug uptake (Kidney [27]): 4.19 % ID/g
- Drug uptake (Brain [28]): 0.46 % ID/g
- Drug uptake (Lung [29]): 9.41 % ID/g
- Drug uptake (Heart [30]): 1.12 % ID/g
- Drug uptake (Heart [31]): 0.62 % ID/g
- Drug uptake (Kidney [32]): 2.49 % ID/g
- Drug uptake (Blood [33]): 2.24 % ID/g
- Drug uptake (Liver [34]): 19.1 % ID/g
- Drug uptake (Liver [35]): 4.87 % ID/g
- Drug uptake (Kidney [36]): 14.3 % ID/g
- Drug uptake (Zone of skin [37]): 1.18 % ID/g
- Drug uptake (Brain [38]): 5.43 % ID/g
- Drug uptake (Muscle tissue [39]): 0.22 % ID/g
- Drug uptake (Muscle tissue [40]): 1.05 % ID/g
- Drug uptake (Thyroid gland [41]): 24.8 % ID/g
- logD [42]: 2.2
- Drug uptake (Spleen [43]): 4.4 % ID/g
SMILES: CN(C)c1ccc(/C=C/c2cnc(OCCO)c([125I])c2)cc1

- Drug uptake (Thyroid gland [2]): 38.1 % ID/g
- Drug uptake (Heart [3]): 2.54 % ID/g
- Drug uptake (Zone of skin [4]): 1.32 % ID/g
- Drug uptake (Lung [5]): 1.85 % ID/g
- Drug uptake (Zone of skin [6]): 2.46 % ID/g
- Drug uptake (Blood [7]): 2.21 % ID/g
- Drug uptake (Heart [8]): 9.85 % ID/g
- Drug uptake (Spleen [9]): 1.27 % ID/g
- Drug uptake (Lung [10]): 3.01 % ID/g
- Drug uptake (Blood [11]): 4.37 % ID/g
- Drug uptake (Muscle tissue [12]): 0.85 % ID/g
- Drug uptake (Spleen [13]): 1.75 % ID/g
- Drug uptake (Blood [14]): 2.88 % ID/g
- Drug uptake (Kidney [15]): 1.86 % ID/g
- Drug uptake (Thyroid gland [16]): 5.74 % ID/g
- Drug uptake (Brain [17]): 0.62 % ID/g
- Drug uptake (Spleen [18]): 2.49 % ID/g
- Drug uptake (Muscle tissue [19]): 1.04 % ID/g
- Drug uptake (Liver [20]): 7.7 % ID/g
- Drug uptake (Thyroid gland [21]): 24.1 % ID/g
- Ratio (Brain [22]): 5.05
- Drug uptake (Liver [23]): 11.5 % ID/g
- Drug uptake (Brain [24]): 1.23 % ID/g
- Drug uptake (Lung [25]): 2.37 % ID/g
- Drug uptake (Zone of skin [26]): 1.48 % ID/g
- Drug uptake (Kidney [27]): 3.4 % ID/g
- Drug uptake (Brain [28]): 0.26 % ID/g
- Drug uptake (Lung [29]): 6.85 % ID/g
- Drug uptake (Heart [30]): 1.75 % ID/g
- Drug uptake (Heart [31]): 1.22 % ID/g
- Drug uptake (Kidney [32]): 2.81 % ID/g
- Drug uptake (Blood [33]): 3.83 % ID/g
- Drug uptake (Liver [34]): 26.2 % ID/g
- Drug uptake (Liver [35]): 6.25 % ID/g
- Drug uptake (Kidney [36]): 9.03 % ID/g
- Drug uptake (Zone of skin [37]): 2.95 % ID/g
- Drug uptake (Brain [38]): 6.22 % ID/g
- Drug uptake (Muscle tissue [39]): 0.44 % ID/g
- Drug uptake (Muscle tissue [40]): 1.11 % ID/g
- Drug uptake (Thyroid gland [41]): 215 % ID/g
- logD [42]: 2.2
- Drug uptake (Spleen [43]): 4.41 % ID/g
SMILES: CNc1ccc(/C=C/c2cnc(OCCOCCOCCF)c([125I])c2)cc1
